One experiment relates to Zymoseptoria tritici. The experiment is described as follows: Leaf Blotch of Wheat fungicidal activity (SEPTTR). It is filed as in vivo. The note with it: for pest or weed control at 121.5 g/ha: Low Volume Cereal Activity at 121.5 g/Ha; for pest or weed control at 100 ppm: wheat, high volume. On the procedure:
(§1) All fungicides were evaluated using the aforementioned method for their activity vs. all target diseases, unless stated otherwise. Wheat leaf blotch and brown rust activity were also evaluated using track spray applications, in which case the fungicides were formulated as EC formulations, containing 0.1% Trycol 5941 in the spray solutions. Wheat plants (variety Yuma) were grown from seed in a greenhouse in 50% mineral soil/50% soil-less Metro mix until the first leaf was fully emerged, with 7-10 seedlings per pot. These plants were inoculated with an aqueous spore suspension of Zymoseptoria tritici either prior to or after fungicide treatments. After inoculation the plants were kept in 100% relative humidity (one day in a dark dew chamber followed by two to three days in a lighted dew chamber at 20° C.) to permit spores to germinate and infect the leaf. The plants were then transferred to a greenhouse set at 20° C. for disease to develop. When disease symptoms were fully expressed on the 1st leaves of untreated plants, infection levels were assessed on a scale of 0 to 100 percent disease severity. Percent disease control was calculated using the ratio of disease severity on treated plants relative to untreated plants.

The test system of a further experiment is Puccinia triticina. Description: Wheat Brown Rust fungicidal activity (PUCCRT). The class given is in vivo. The note with it: for pest or weed control at 121.5 g/ha: Low Volume Cereal Activity at 121.5 g/Ha; for pest or weed control at 100 ppm: wheat, high volume. On the procedure:
as §1, with “plants. Wheat plants (variety Yuma) were grown from seed in a greenhouse in 50% mineral soil/50% soil-less Metro mix until the first leaf was fully emerged, with 7-10 seedlings per pot. These plants were inoculated with an aqueous spore suspension of Puccinia triticina either prior to or after fungicide treatments. […] The plants were then transferred to a greenhouse set at 24° C. for disease to develop. Fungicide formulation, application and disease assessment followed the procedures as described in the Example A.” for “plants.”

The mark [1] stands for this setting: 24 h, 1 Day Protectant, read-out: SEPTTR 1DP (Wheat Leaf Blotch, 1 Day Protectant).
Setting [2] is: 72 h, 3 Day Curative, read-out: SEPTTR 3DC (Wheat Leaf Blotch, 3 Day Curative).
The mark [3] stands for this setting: 24 h, 1 Day Protectant, read-out: PUCCRT 1DP (Wheat Brown Rust, 1 Day Protectant).
Where [4] appears, read: 72 h, 3 Day Curative, read-out: PUCCRT 3DC (Wheat Brown Rust, 3 Day Curative).
Where [5] appears, read: 24 h, 1 Day Protectant, read-out: SEPTTR 1DP % Control rating.
The mark [6] stands for this setting: 72 h, 3 Day Curative, read-out: SEPTTR 3DC % Control rating.
The mark [7] stands for this setting: 24 h, 1 Day Protectant, read-out: PUCCRT 1DP % Control rating.
Setting [8] is: 72 h, 3 Day Curative, read-out: PUCCRT 3DC % Control rating.

SMILES strings stand for the structures. Where two headings read alike, the source gives them in different places. Bounds are passed on as bounds.

In the case of `COc1ccnc(C(=O)N[C@H](C(=O)O[C@@H](C)[C@H](Oc2ccc(C(F)(F)F)cc2)c2ccccc2)C(C)C)c1OC(C)=O` [Example 198], the pest or weed control at 121.5 g/ha was above 80% with Zymoseptoria tritici (setting [1]), below 0% with Zymoseptoria tritici (setting [2]), above 80% with Puccinia triticina (setting [3]) and below 80% in the experiment with Puccinia triticina (setting [4]).

Take `CC[C@H](NC(=O)c1nccc(OC)c1OC(C)=O)C(=O)O[C@@H](C)[C@H](Oc1cc(F)ccc1F)c1ccccc1` [Example 194]: the pest or weed control at 121.5 g/ha with Zymoseptoria tritici (setting [1]) is below 80%; in the experiment on Zymoseptoria tritici (setting [2]) it was below 0%; in the experiment on Puccinia triticina (setting [3]) it was above 80%; in the experiment with Puccinia triticina (setting [4]), below 80%.

Turning to `COc1ccnc(C(=O)N[C@@H](C)C(=O)O[C@@H](C)[C@H](Oc2cccc(Cl)c2)c2ccccc2)c1O` [Example 118], the pest or weed control at 100 ppm in the experiment on Zymoseptoria tritici (setting [5]), with Zymoseptoria tritici (setting [6]), in the experiment with Puccinia triticina (setting [7]) and with Puccinia triticina (setting [8]) was above 80% in each case.

`COc1ccnc(C(=O)N[C@@H](C)C(=O)O[C@@H](C)[C@H](Oc2ccc(Cl)cc2)c2ccccc2)c1OCOC(C)=O` [Example 201]: the pest or weed control at 121.5 g/ha in the experiment with Zymoseptoria tritici (setting [1]), with Zymoseptoria tritici (setting [2]), in the experiment on Puccinia triticina (setting [3]) and in the experiment on Puccinia triticina (setting [4]) was above 80% throughout.

With `COc1ccnc(C(=O)N[C@@H](C)C(=O)O[C@@H](C)[C@H](OCC2CC2)c2ccccc2)c1O` [Example 113], the pest or weed control at 100 ppm with Zymoseptoria tritici (setting [5]) was above 80%; in the experiment with Zymoseptoria tritici (setting [6]), above 80%; in the experiment with Puccinia triticina (setting [7]), above 80%; in the experiment with Puccinia triticina (setting [8]) it was below 80%.

Take `COc1cc(F)ccc1[C@@H](Oc1ccc(C)cc1Cl)[C@H](C)OC(=O)[C@H](C)NC(=O)c1nccc(OC)c1O` [Example 169]: the pest or weed control at 100 ppm with Zymoseptoria tritici (setting [5]) was above 80%; in the experiment on Zymoseptoria tritici (setting [6]) it was above 80%; in the experiment on Puccinia triticina (setting [7]), above 80%; with Puccinia triticina (setting [8]) it was below 80%.

As for `COc1ccnc(C(=O)N[C@@H](C)C(=O)O[C@@H](C)[C@H](Oc2ccc(C)cc2)c2ccc(F)cc2)c1O` [Example 152], the pest or weed control at 100 ppm with Zymoseptoria tritici (setting [5]), in the experiment on Zymoseptoria tritici (setting [6]), in the experiment with Puccinia triticina (setting [7]) and in the experiment on Puccinia triticina (setting [8]) was above 80% each time.

Regarding `COc1cc(F)ccc1[C@@H](OC(=O)C(C)(C)C)[C@H](C)OC(=O)[C@H](C)NC(=O)c1nccc(OC)c1O` [Example 290], the pest or weed control at 100 ppm in the experiment on Zymoseptoria tritici (setting [5]), in the experiment on Zymoseptoria tritici (setting [6]), in the experiment with Puccinia triticina (setting [7]) and in the experiment on Puccinia triticina (setting [8]) was above 80% in each case.

Turning to `COc1ccnc(C(=O)N[C@@H](C)C(=O)O[C@@H](C)[C@@H](OC)c2ccccc2)c1OC(C)=O` [Example 229], the pest or weed control at 121.5 g/ha was below 0% in the experiment with Zymoseptoria tritici (setting [1]), below 80% in the experiment on Zymoseptoria tritici (setting [2]), below 0% with Puccinia triticina (setting [3]) and above 80% in the experiment on Puccinia triticina (setting [4]).

Take `COc1ccnc(C(=O)N[C@@H](C)C(=O)O[C@@H](C)[C@H](Oc2ccc(Cl)cc2)c2ccccc2)c1O` [Example 119]: the pest or weed control at 100 ppm was below 80% in the experiment with Zymoseptoria tritici (setting [5]), above 80% in the experiment on Zymoseptoria tritici (setting [6]), above 80% in the experiment on Puccinia triticina (setting [7]) and above 80% with Puccinia triticina (setting [8]).

For the compound `COc1ccnc(C(=O)N[C@@H](C)C(=O)O[C@@H](C)[C@H](Oc2ccc(C)cc2)c2ccc(F)cc2)c1OCOC(C)=O` [Example 249], the pest or weed control at 121.5 g/ha with Zymoseptoria tritici (setting [1]), in the experiment with Zymoseptoria tritici (setting [2]), in the experiment on Puccinia triticina (setting [3]) and with Puccinia triticina (setting [4]) was above 80% in each case.

Turning to `COc1ccnc(C(=O)N[C@@H](C)C(=O)O[C@@H](C)[C@H](Oc2ccccc2Cl)c2ccccc2)c1O` [Example 117], the pest or weed control at 100 ppm in the experiment on Zymoseptoria tritici (setting [5]), in the experiment on Zymoseptoria tritici (setting [6]), in the experiment on Puccinia triticina (setting [7]) and in the experiment with Puccinia triticina (setting [8]) was above 80% each time.

Consider `CC[C@H](NC(=O)c1nccc(OC)c1O)C(=O)O[C@@H](C)[C@H](Oc1cc(F)cc(Cl)c1)c1ccccc1` [Example 124], for which the pest or weed control at 100 ppm in the experiment on Zymoseptoria tritici (setting [5]), with Zymoseptoria tritici (setting [6]), with Puccinia triticina (setting [7]) and in the experiment with Puccinia triticina (setting [8]) was above 80% in each case.

Regarding `COc1cc(F)ccc1[C@@H](OCC(F)F)[C@H](C)OC(=O)[C@H](C)NC(=O)c1nccc(OC)c1O` [Example 288], the pest or weed control at 100 ppm in the experiment on Zymoseptoria tritici (setting [5]) was below 80%; with Zymoseptoria tritici (setting [6]), above 80%; with Puccinia triticina (setting [7]) it was above 80%; in the experiment on Puccinia triticina (setting [8]) it was above 80%.

With `COc1ccnc(C(=O)N[C@@H](C)C(=O)O[C@@H](C)[C@@H](Oc2ccc(Cl)cc2Cl)c2ccccc2)c1OC(C)=O` [Example 214], the pest or weed control at 121.5 g/ha is above 80% with Zymoseptoria tritici (setting [1]), above 80% with Zymoseptoria tritici (setting [2]), above 80% in the experiment on Puccinia triticina (setting [3]) and below 80% in the experiment with Puccinia triticina (setting [4]).

As to `CCCO[C@H](c1ccccc1)[C@H](C)OC(=O)[C@H](C)NC(=O)c1nccc(OC)c1O` [Example 137], the pest or weed control at 100 ppm in the experiment with Zymoseptoria tritici (setting [5]), with Zymoseptoria tritici (setting [6]), with Puccinia triticina (setting [7]) and in the experiment with Puccinia triticina (setting [8]) was above 80% each time.

For `CC[C@H](NC(=O)c1nccc(OC)c1OC(C)=O)C(=O)O[C@@H](C)[C@H](Oc1cc(F)cc(Cl)c1)c1ccccc1` [Example 209], the pest or weed control at 121.5 g/ha with Zymoseptoria tritici (setting [1]) was above 80%; with Zymoseptoria tritici (setting [2]) it was above 80%; with Puccinia triticina (setting [3]), above 80%; in the experiment on Puccinia triticina (setting [4]) it was below 80%.

Turning to `COc1ccnc(C(=O)N[C@@H](C)C(=O)O[C@@H](C)[C@H](Oc2ccccc2)c2cccc3ccccc23)c1O` [Example 165], the pest or weed control at 100 ppm in the experiment with Zymoseptoria tritici (setting [5]), with Zymoseptoria tritici (setting [6]), in the experiment on Puccinia triticina (setting [7]) and with Puccinia triticina (setting [8]) was above 80% each time.

As for `COc1cc(C)ccc1[C@@H](Oc1ccccc1)[C@H](C)OC(=O)[C@H](C)NC(=O)c1nccc(OC)c1O` [Example 172], the pest or weed control at 100 ppm with Zymoseptoria tritici (setting [5]), in the experiment on Zymoseptoria tritici (setting [6]), with Puccinia triticina (setting [7]) and in the experiment on Puccinia triticina (setting [8]) was above 80% in each case.

As to `COc1ccnc(C(=O)N[C@@H](C)C(=O)O[C@@H](C)[C@H](Oc2ccc(Cl)cc2Cl)c2ccccc2)c1OCOC(C)=O` [Example 199], the pest or weed control at 121.5 g/ha is above 80% with Zymoseptoria tritici (setting [1]), above 80% with Zymoseptoria tritici (setting [2]), above 80% in the experiment on Puccinia triticina (setting [3]) and below 80% in the experiment with Puccinia triticina (setting [4]).

For `COc1ccnc(C(=O)N[C@@H](C)C(=O)O[C@@H](C)[C@H](OCC2CC2)c2ccc(-c3ccccc3)cc2)c1OCOC(C)=O` [Example 234], the pest or weed control at 121.5 g/ha is above 80% with Zymoseptoria tritici (setting [1]), above 80% with Zymoseptoria tritici (setting [2]), above 80% with Puccinia triticina (setting [3]) and below 80% in the experiment with Puccinia triticina (setting [4]).

On to `CCCO[C@@H](c1ccccc1)[C@H](C)OC(=O)[C@H](C)NC(=O)c1nccc(OC)c1OC(C)=O` [Example 227], for which the pest or weed control at 121.5 g/ha with Zymoseptoria tritici (setting [1]) was below 80%; in the experiment on Zymoseptoria tritici (setting [2]), above 80%; with Puccinia triticina (setting [3]), above 80%; with Puccinia triticina (setting [4]) it was above 80%.

In the case of `COc1ccnc(C(=O)N[C@@H](C)C(=O)O[C@@H](C)[C@H](Oc2ccc(C(F)(F)F)cc2)c2ccccc2)c1OC(C)=O` [Example 196], the pest or weed control at 121.5 g/ha in the experiment with Zymoseptoria tritici (setting [1]) is above 80%; with Zymoseptoria tritici (setting [2]), above 80%; with Puccinia triticina (setting [3]), above 80%; in the experiment with Puccinia triticina (setting [4]) it was below 80%.

The values above are taken from patent US20180002288A1, “USE OF PICOLINAMIDES AS FUNGICIDES” (DOW AGROSCIENCES LLC, priority 2014, published 2018).
